Test results: patent publication US12643910B2, “Substituted pyrazolo[3,4-b]pyridines as ectonucleotide pyrophosphatase/phosphodiesterase 1 (ENPP1) modulators” (SANFORD BURNHAM PREBYS MEDICAL DISCOVERY INSTITUTE, priority 2019, dated 2026)

Columns and labels:
human ENPP1 = biological target: T1, human ENPP1 (Homo sapiens, UniProt P22413); experiment: ENPP1 assay with ATP substrate (Transcreener AMP2/GMP2 TR-FRET); format: biochemical; settings: 1 hour at room temperature
T1 construct: made in house
T1 sequence (P22413 1-925): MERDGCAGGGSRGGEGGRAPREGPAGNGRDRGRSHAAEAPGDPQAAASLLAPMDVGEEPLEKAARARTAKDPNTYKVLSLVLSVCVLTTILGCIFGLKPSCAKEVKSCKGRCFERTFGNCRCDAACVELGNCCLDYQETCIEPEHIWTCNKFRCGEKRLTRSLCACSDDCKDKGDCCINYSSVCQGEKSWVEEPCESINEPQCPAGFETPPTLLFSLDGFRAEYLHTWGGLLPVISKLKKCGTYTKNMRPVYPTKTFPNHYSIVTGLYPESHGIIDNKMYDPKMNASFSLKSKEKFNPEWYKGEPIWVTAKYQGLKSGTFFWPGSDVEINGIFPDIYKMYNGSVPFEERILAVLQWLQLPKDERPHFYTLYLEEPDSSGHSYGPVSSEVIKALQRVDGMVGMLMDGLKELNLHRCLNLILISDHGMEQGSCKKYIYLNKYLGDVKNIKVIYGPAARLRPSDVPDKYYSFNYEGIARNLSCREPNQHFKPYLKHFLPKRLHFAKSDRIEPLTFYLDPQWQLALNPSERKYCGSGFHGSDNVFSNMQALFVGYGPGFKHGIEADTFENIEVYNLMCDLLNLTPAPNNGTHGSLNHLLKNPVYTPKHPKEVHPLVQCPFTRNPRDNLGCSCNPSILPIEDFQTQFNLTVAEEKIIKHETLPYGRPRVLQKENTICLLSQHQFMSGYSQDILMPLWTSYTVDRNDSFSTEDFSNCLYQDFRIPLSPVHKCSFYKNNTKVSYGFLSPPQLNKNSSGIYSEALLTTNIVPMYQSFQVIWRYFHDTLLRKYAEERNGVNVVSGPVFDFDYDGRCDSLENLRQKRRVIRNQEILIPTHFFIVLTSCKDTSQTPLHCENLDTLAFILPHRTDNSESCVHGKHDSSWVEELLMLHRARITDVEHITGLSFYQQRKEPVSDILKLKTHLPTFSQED
Summary of the method: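 Reaction ran 1 h at room temperature in pH 7.5 Tris with MgCl2, TCEP, Tween 20 and 1% DMSO. ATP was added as a 300 nM stock and enzyme as an 8.5 μM stock. After EDTA stop, AMP was read by TR-FRET tracer displacement. Percent inhibition used enzyme/no-enzyme controls; IC50 was fitted with a variable slope.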

ENPP3 = biological target: T2, ENPP3 (Homo sapiens, UniProt O14638); experiment: ENPP3 Km ATP assay; format: biochemical; settings: ATP at Km
T2 sequence (O14638 1-875): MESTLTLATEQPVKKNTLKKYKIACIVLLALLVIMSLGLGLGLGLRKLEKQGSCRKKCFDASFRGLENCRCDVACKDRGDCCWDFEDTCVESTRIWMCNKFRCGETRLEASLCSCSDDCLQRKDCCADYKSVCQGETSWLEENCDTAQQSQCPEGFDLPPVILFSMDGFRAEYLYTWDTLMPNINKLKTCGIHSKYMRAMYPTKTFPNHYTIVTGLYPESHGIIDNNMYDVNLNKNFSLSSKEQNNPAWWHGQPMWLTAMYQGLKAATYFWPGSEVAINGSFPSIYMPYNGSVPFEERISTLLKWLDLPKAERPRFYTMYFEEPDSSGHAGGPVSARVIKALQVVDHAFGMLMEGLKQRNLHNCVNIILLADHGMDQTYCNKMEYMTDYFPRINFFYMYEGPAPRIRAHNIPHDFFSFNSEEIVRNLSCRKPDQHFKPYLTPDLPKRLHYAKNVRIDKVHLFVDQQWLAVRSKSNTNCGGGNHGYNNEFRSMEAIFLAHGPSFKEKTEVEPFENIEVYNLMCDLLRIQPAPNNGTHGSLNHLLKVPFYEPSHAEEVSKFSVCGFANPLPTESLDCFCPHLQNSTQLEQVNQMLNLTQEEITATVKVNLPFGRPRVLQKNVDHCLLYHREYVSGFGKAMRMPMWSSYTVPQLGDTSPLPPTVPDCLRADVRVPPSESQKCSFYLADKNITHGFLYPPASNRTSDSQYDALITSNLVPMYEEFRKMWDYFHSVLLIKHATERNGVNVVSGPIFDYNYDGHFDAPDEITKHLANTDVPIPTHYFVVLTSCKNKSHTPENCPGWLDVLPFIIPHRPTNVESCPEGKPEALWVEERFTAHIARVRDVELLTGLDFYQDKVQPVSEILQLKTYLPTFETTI

Structure (SMILES)	IC50 (human ENPP1)	IC50 (ENPP3)
Cc1csc2c(N3CCC(NCCc4ccncc4)CC3)ncnc12 [Example 3.25, 1-(7-Methylthieno[3,2-d]pyrimidin-4-yl)-N-(2-(pyridin-4-yl)ethyl)piperidin-4-amine]	0.1 to 1 µM	> 20 µM
Nc1nc(NCc2ccc(S(N)(=O)=O)cc2)c2c(-c3ccccc3)csc2n1 [Example 1.57, 4-((2-Amino-5-phenylthieno[2,3-d]pyrimidin-4-yl)aminomethyl)benzenesulfonamide]	< 0.1 µM	0.1 to 1 µM
Cc1csc2c(N3CCC(NCCCc4cccc(C(F)(F)F)c4)CC3)ncnc12 [Example 3.12, 1-(7-Methylthieno[3,2-d]pyrimidin-4-yl)-N-(3-(3-(trifluoromethyl)phenyl)propyl)piperidin-4-amine]	0.1 to 1 µM	> 20 µM
NS(=O)(=O)c1ccc(CNc2nc(-c3ccccn3)nc3scc(-c4ccccc4)c23)cc1F [Example 1.13, 2-Fluoro-4-(((5-phenyl-2-(pyridin-2-yl)thieno[2,3-d]pyrimidin-4-yl)amino)methyl)benzenesulfonamide]	< 0.1 µM	0.1 to 1 µM
Cn1ncc2c(NCc3ccc(S(N)(=O)=O)cc3Cl)ccnc21 [Example 2.61, 3-Chloro-4-(((1-methyl-1H-pyrazolo[3,4-b]pyridin-4-yl)amino)methyl)benzenesulfonamide]	0.1 to 1 µM	0.1 to 1 µM
CC(Nc1ncnc2scc(-c3ccccc3)c12)c1ccc(S(N)(=O)=O)cc1 (stereo not shown) [Example 1.65, 4-(1-(5-Phenylthieno[2,3-d]pyrimidin-4-yl)aminoethyl)benzenesulfonamide]	1 to 20 µM	1 to 20 µM
CCN(c1nc(NCc2ccc(S(N)(=O)=O)cc2)c2c(-c3ccccc3)csc2n1)C(C)(C)CO [Example 1.53, 4-((2-(N-Ethyl-N-(1-hydroxy-2-methylpropan-2-yl)amino)-5-phenylthieno[2,3-d]pyrimidin-4-yl)aminomethyl)benzenesulfonamide]	0.1 to 1 µM	0.1 to 1 µM
CCNc1nc(NCc2ccc(S(N)(=O)=O)cn2)c2cnn(C)c2n1 [Example 2.139, 6-(((6-(Ethylamino)-1-methyl-1H-pyrazolo[3,4-d]pyrimidin-4-yl)amino)methyl)pyridine-3-sulfonamide]	1 to 20 µM	1 to 20 µM
CCc1nc(N2CCC(NCCCc3ccncc3)CC2)c2scc(C)c2n1 [Example 3.54, 1-(2-Ethyl-7-methylthieno[3,2-d]pyrimidin-4-yl)-N-(3-(pyridin-4-yl)propyl)piperidin-4-amine]	> 20 µM	> 20 µM
c1ccc(CNc2nc(-c3ccccn3)nc3scc(-c4ccccc4)c23)cc1 [Example 1.5, N-Benzyl-5-phenyl-2-(pyridin-2-yl)thieno[2,3-d]pyrimidin-4-amine]	> 20 µM	> 20 µM
Cn1ncc2c(N3CCC(NCCCc4ccc(F)cc4)CC3)ncnc21 [Example 3.50, N-(3-(4-Fluorophenyl)propyl)-1-(1-methyl-1H-pyrazolo[3,4-d]pyrimidin-4-yl)piperidin-4-amine]	> 20 µM	> 20 µM
Cc1cc(S(N)(=O)=O)ccc1CNc1ncnc2c1cnn2C [Example 2.2, 3-Methyl-4-(((1-methyl-1H-pyrazolo[3,4-d]pyrimidin-4-yl)amino)methyl)-benzenesulfonamide]	0.1 to 1 µM	1 to 20 µM
NS(=O)(=O)c1ccc(CNc2nc(-c3ccccn3)nc3scc(-c4ccccc4)c23)cc1 [Example 1.6, 4-(((5-Phenyl-2-(pyridin-2-yl)thieno[2,3-d]pyrimidin-4-yl)amino)methyl)benzenesulfonamide]	< 0.1 µM	< 0.1 µM
Cc1cc(CCCNC2CCN(c3ncnc4c(C)csc34)CC2)ccn1 [Example 3.30, N-(3-(2-Methylpyridin-4-yl)propyl)-1-(7-methylthieno[3,2-d]pyrimidin-4-yl)piperidin-4-amine]	0.1 to 1 µM	> 20 µM
Cc1nsc2c(=O)n(Cc3ccc(S(N)(=O)=O)cc3)cnc12 [Example 3.60, 4-((3-Methyl-7-oxoisothiazolo[4,5-d]pyrimidin-6(7H)-yl)methyl)benzenesulfonamide]	1 to 20 µM	1 to 20 µM
Cc1csc2c(N3CCC(NCCCc4cccc(Cl)c4)CC3)ncnc12 [Example 3.19, N-(3-(3-Chlorophenyl)propyl)-1-(7-methylthieno[3,2-d]pyrimidin-4-yl)piperidin-4-amine]	0.1 to 1 µM	> 20 µM
CN(Cc1ccc(S(N)(=O)=O)cc1)c1ncnc2c1cnn2C [Example 2.136, 4-(N-methyl-N-(1-methyl-1H-pyrazolo[3,4-d]pyrimidin-4-yl)aminomethyl)-benzenesulfonamide]	1 to 20 µM	0.1 to 1 µM
O=C(CCc1ccc(F)cc1)NC1CCN(c2ncnc3ccsc23)CC1 [Example 3.46, 3-(4-Fluorophenyl)-N-(1-(thieno[3,2-d]pyrimidin-4-yl)piperidin-4-yl)propanamide]	> 20 µM	> 20 µM
COCCCNc1nc(NCc2ccc(S(N)(=O)=O)cc2)c2c(-c3ccccc3)csc2n1 [Example 1.56, 4-((2-(3-Methoxypropyl)amino-5-phenylthieno[2,3-d]pyrimidin-4-yl)aminomethyl)-benzenesulfonamide]	< 0.1 µM	< 0.1 µM
Cc1csc2c(N3CCC(NC(=O)CCc4ccncc4F)CC3)ncnc12 [Example 3.38, 3-(3-fluoropyridin-4-yl)-N-(1-(7-methylthieno[3,2-d]pyrimidin-4-yl)piperidin-4-yl)propanamide]	> 20 µM	> 20 µM
Cn1ncc2c(NCc3ccc(S(N)(=O)=O)cc3Cl)ncnc21 [Example 2.47, 3-Chloro-4-(((1-methyl-1H-pyrazolo[3,4-d]pyrimidin-4-yl)amino)methyl)-benzenesulfonamide]	0.1 to 1 µM	1 to 20 µM
CCNc1cc(NCc2ccc(S(N)(=O)=O)cc2F)c2cnn(C)c2n1 [Example 2.144, 4-(((6-(Ethylamino)-1-methyl-1H-pyrazolo[3,4-b]pyridin-4-yl)amino)methyl)-3-fluorobenzenesulfonamide]	0.1 to 1 µM	0.1 to 1 µM
Cn1ncc2c(NCc3ccc(S(N)(=O)=O)cc3)cc(N3CCCC3)nc21 [Example 2.77, 4-(((1-Methyl-6-(pyrrolidin-1-yl)-1H-pyrazolo[3,4-b]pyridin-4-yl)amino)methyl)-benzenesulfonamide]	1 to 20 µM	0.1 to 1 µM
CCn1ncc2c(NCc3ccc(S(N)(=O)=O)cc3)nc(OCCC(C)(C)OC)nc21 [Example 2.98, 4-((1-Ethyl-6-(3-methoxy-3-methylbutoxy)-1H-pyrazolo[3,4-d]pyrimidin-4-yl)aminomethyl)-benzenesulfonamide]	< 0.1 µM	1 to 20 µM
Cc1csc2c(N3CCC(NCCCc4ccc(Cl)cc4)CC3)ncnc12 [Example 3.28, N-(3-(4-Chlorophenyl)propyl)-1-(7-methylthieno[3,2-d]pyrimidin-4-yl)piperidin-4-amine]	< 0.1 µM	> 20 µM
Cn1ncc2c(NCc3ccc(S(N)(=O)=O)cc3)ncnc21 [Example 2.25, 4-(((1-Methyl-1H-pyrazolo[3,4-d]pyrimidin-4-yl)amino)methyl)benzenesulfonamide]	< 0.1 µM	1 to 20 µM
